Active and inactive are the calls of the source. The calls are words filed in the database; no cut-off is given here.
Key:
GTPase KRas [1] = molecular target: T1, GTPase KRas (Homo sapiens, UniProt P01116, G12C); test: Inhibition of recombinant biotinylated KRAS G12C mutant (unknown origin) assessed as human SOS catalyzed nucleotide exchange measured after 60 mins by TR-FRET based guanine nucleotide exchange assay
GTPase KRas [2] = molecular target: T1, GTPase KRas; test: Inhibition of KRAS G12C mutant in human NCI-H358 cells assessed as reduction in Erk1/2 phosphorylation level measured for 8 hrs by Western blot analysis; type: cell-based
[3] = MRT in fasted Wistar-Han rat measured up to 24 hrs by LC-MS/MS analysis; type: ADME; details: in vivo
[4] = Oral bioavailability in fasted Wistar-Han rat measured up to 24 hrs by LC-MS/MS analysis; type: ADME, organism-based; details: in vivo
[5] = Unbound plasma clearance in fasted Wistar-Han rat measured up to 24 hrs by LC-MS/MS analysis; type: ADME
[6] = Unbound plasma clearance in male Beagle dog measured up to 24 hrs by LC-MS/MS analysis; type: ADME, Canis lupus familiaris
[7] = Apparent permeability in MDCK-II cells; type: ADME, cell-based, Canis lupus familiaris; details: dog
[8] = Plasma clearance in male Beagle dog measured up to 24 hrs by LC-MS/MS analysis; type: ADME, Canis lupus familiaris
[9] = Plasma clearance in fasted Wistar-Han rat measured up to 24 hrs by LC-MS/MS analysis; type: ADME
[10] = Oral bioavailability in male Beagle dog measured up to 24 hrs by LC-MS/MS analysis; type: ADME, organism-based, Canis lupus familiaris; details: in vivo
[11] = MRT in male Beagle dog measured up to 24 hrs by LC-MS/MS analysis; type: ADME, Canis lupus familiaris; details: in vivo
MIA PaCa-2 = test: In vivo antitumor activity against […] cells xenografted in rat model assessed as decrease in tumor volume at 30 mg/kg, po qd measured up to 21 days; type: functional, organism-based; details: Homo sapiens, time <= 21.0 day
PDX LU2512 = test: In vivo antitumor activity against patient-derived PDX LU2512 cells xenografted in rat model assessed as decrease in tumor volume at 30 mg/kg, po qd measured up to 21 days; type: functional, organism-based; details: Homo sapiens, time <= 21.0 day
PDX LU2529 = test: In vivo antitumor activity against patient-derived PDX LU2529 cells xenografted in rat model assessed as decrease in tumor volume at 30 mg/kg, po qd measured up to 21 days; type: functional, organism-based; details: Homo sapiens, time <= 21.0 day
[12] = Oral bioavailability in fasted Wistar-Han rat measured up to 24 hrs pre-dosed with ABT by LC-MS/MS analysis; type: ADME, organism-based; details: in vivo

T1 sequence (P01116 whole entry G12C): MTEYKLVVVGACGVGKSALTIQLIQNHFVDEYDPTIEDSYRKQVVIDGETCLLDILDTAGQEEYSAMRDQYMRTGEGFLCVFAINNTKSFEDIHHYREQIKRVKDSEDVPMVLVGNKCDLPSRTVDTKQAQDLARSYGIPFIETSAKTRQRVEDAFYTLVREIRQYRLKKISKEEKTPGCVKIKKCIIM

Row | Compound | IC50 (GTPase KRas [1]) | IC50 (GTPase KRas [2]) | MRT [3] | bioavailability [4] | CL free [5] | CL free [6] | Papp [7] | clearance [8] | clearance [9] | bioavailability [10] | MRT [11] | Activity (MIA PaCa-2) | Activity (PDX LU2512) | Activity (PDX LU2529) | bioavailability [12]
1 | C=CC(=O)N1CCN(c2nc(=O)n3c4nc(c(F)cc24)-c2c(F)cccc2OCCCc2ccnc(C(C)C)c2-3)[C@@H](C)C1 | 4.3 nM | 5.4 nM | – | – | – | – | – | – | – | – | – | – | – | – | –
2 | C=CC(=O)N1C[C@H](C)N(c2nc(=O)n3c4nc(c(F)cc24)-c2c(F)cc(F)cc2OCC(F)(F)CCc2ccnc(C(C)C)c2-3)C[C@H]1C | 1.1 nM | 8.9 nM | 2.6 h | 53% | 270 mL/min/kg | 194 mL/min/kg | 31 ×10⁻⁶ cm/s | 9.7 mL/min/kg | 10 mL/min/kg | 76% | 2.5 h | – | – | – | –
3 | C=CC(=O)N1C[C@H](C)N(c2nc(=O)n3c4nc(c(Cl)cc24)-c2c(F)ccc(F)c2OCCOc2ccnc(C(C)C)c2-3)C[C@H]1C | 1.2 nM | 9 nM | 1.1 h | 61% | 606 mL/min/kg | 243 mL/min/kg | 20 ×10⁻⁶ cm/s | 28 mL/min/kg | 22 mL/min/kg | 58% | 1.1 h | Active | Active | Active | –
4 | C=CC(=O)N1CCN(c2nc(=O)n3c4nc(c(F)cc24)-c2c(F)cccc2OCCCCc2ccnc(C(C)C)c2-3)[C@@H](C)C1 | 1.2 nM | 4.8 nM | 0.4 h | 2% | 770 mL/min/kg | – | 17 ×10⁻⁶ cm/s | – | 80 mL/min/kg | – | – | – | – | – | 50%
5 | C=CC(=O)N1C[C@H](C)N(c2nc(=O)n3c4nc(c(F)cc24)-c2c(F)cccc2OCCOc2ccnc(C(C)C)c2-3)C[C@H]1C | 6.5 nM | 11 nM | 0.6 h | 5% | 299 mL/min/kg | – | 8 ×10⁻⁶ cm/s | – | 49 mL/min/kg | – | – | – | – | – | 11%
6 | C=CC(=O)N1C[C@H](C)N(c2nc(=O)n3c4nc(c(C)cc24)-c2c(F)ccc(F)c2OCCOc2ccnc(C(C)C)c2-3)C[C@H]1C | 4.5 nM | 30 nM | 0.9 h | 17% | 148 mL/min/kg | – | 13 ×10⁻⁶ cm/s | – | 12 mL/min/kg | – | – | – | – | – | –
7 | C=CC(=O)N1C[C@H](C)N(c2nc(=O)n3c4nc(c(F)cc24)-c2c(ccc(F)c2F)OCC(F)(F)CCc2ccnc(C(C)C)c2-3)C[C@H]1C | 3 nM | 5.2 nM | 1.8 h | 42% | 213 mL/min/kg | 128 mL/min/kg | 25 ×10⁻⁶ cm/s | 7.3 mL/min/kg | 13 mL/min/kg | 80% | 3.3 h | – | – | – | –
8 | C=CC(=O)N1CCN(c2nc(=O)n3c4nc(c(F)cc24)-c2c(F)cccc2OCCCOc2ccnc(C(C)C)c2-3)[C@@H](C)C1 | 11 nM | 21 nM | – | – | – | – | – | – | – | – | – | – | – | – | –
9 | C=CC(=O)N1CCN(c2nc(=O)n3c4nc(c(Cl)cc24)-c2c(F)cccc2OCCc2ccccc2-3)[C@@H](C)C1 | 1410 nM | 3830 nM | – | – | – | – | – | – | – | – | – | – | – | – | –
10 | C=CC(=O)N1C[C@H](C)N(c2nc(=O)n3c4nc(c(F)cc24)-c2c(ccc(F)c2F)OCCOc2ccnc(C(C)C)c2-3)C[C@H]1C | 5.3 nM | 10 nM | 0.7 h | 10% | 434 mL/min/kg | – | 9 ×10⁻⁶ cm/s | – | 26 mL/min/kg | – | – | – | – | – | –
11 | C=CC(=O)N1C[C@H](C)N(c2nc(=O)n3c4nc(c(F)cc24)-c2c(F)cccc2OCCCc2ccnc(C(C)C)c2-3)C[C@H]1C | 1.7 nM | 7.4 nM | – | – | – | – | – | – | – | – | – | – | – | – | –
12 | C=CC(=O)N1C[C@H](C)N(c2nc(=O)n3c4nc(c(F)cc24)-c2c(F)ccc(F)c2OCCOc2ccnc(C(C)C)c2-3)C[C@H]1C | 3.5 nM | 28 nM | 1.4 h | 25% | 126 mL/min/kg | 130 mL/min/kg | 15 ×10⁻⁶ cm/s | 32 mL/min/kg | 13 mL/min/kg | 67% | 0.8 h | – | – | – | –
13 | C=CC(=O)N1C[C@H](C)N(c2nc(=O)n3c4nc(c(F)cc24)-c2c(F)cc(F)cc2OCCOc2ccnc(C(C)C)c2-3)C[C@H]1C | 6.9 nM | 16 nM | 0.7 h | 12% | 407 mL/min/kg | – | – | – | 40 mL/min/kg | – | – | – | – | – | –
14 | C=CC(=O)N1C[C@H](C)N(c2nc(=O)n3c4nc(c(F)cc24)-c2c(F)cccc2OCC(F)(F)CCc2ccnc(C(C)C)c2-3)C[C@H]1C | 2.9 nM | 6.6 nM | 2.3 h | 12% | 113 mL/min/kg | 160 mL/min/kg | 23 ×10⁻⁶ cm/s | 18 mL/min/kg | 9.7 mL/min/kg | 59% | 2.2 h | – | – | – | –

Source: ChEMBL document CHEMBL6078617, “Discovery of MK-1084: An Orally Bioavailable and Low-Dose KRASG12C Inhibitor” (J Med Chem, 2024)
